The record followed here is ChEMBL document CHEMBL1201862, “PubChem BioAssay data set” (2004).

Among the test systems are OVCAR-8; HCC 2998; K562; HOP-92; Hs-578T; U-251; NCI/ADR-RES; OVCAR-5; HCT-15; NCI-H522; KM12; COLO 205; A498; MDA-MB-435; A549; HL-60; SF-539; SNB-75; SR; T47D.
Common to all, as to test: growth of human tumour cells (NCI), 48 h

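Results reflect a 48-hour exposure of cells in 96-well plates to compound at five concentrations. Here, GI50 denotes the concentration required for 50% inhibition of growth.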 Activity calls are given as the source filed them. Rule as the data show it: active = GI50 up to about 1.1 µM and inactive = higher.

For `COc1cc2oc(=O)ccc2cc1C(=O)CC(C)C`, the GI50 was > 100 µM (inactive) with OVCAR-8; > 100 µM (inactive) with HCC 2998; > 100 µM (inactive) in the assay with K562; > 100 µM (inactive) in the assay on HOP-92; 38.5 µM (inactive) with Hs-578T; > 100 µM (inactive) in the assay on U-251. Moreover, the GI50 in the assay on NCI/ADR-RES was 66.4 µM (inactive); in the assay on OVCAR-5, > 100 µM (inactive); in the assay with HCT-15, above 100 µM; in the assay on NCI-H522, 23.6 µM (inactive); in the assay on KM12, > 100 µM (inactive); in the assay on COLO 205 it was > 100 µM (inactive). Besides, the GI50 was > 100 µM (inactive) in the assay on A498; > 100 µM (inactive) with MDA-MB-435; > 100 µM (inactive) in the assay on A549; 39.2 µM (inactive) in the assay with HL-60; > 100 µM (inactive) in the assay with SF-539; 78.7 µM (inactive) in the assay with SNB-75. Moreover, the GI50 was 62.4 µM (inactive) in the assay on SR and > 100 µM (inactive) in the assay with T47D.
